Experiment: Release of oxybutynin using ultrasound from oxybutynin-containing polymer matrix microparticles (reverse phase HPLC)
Assay type: physicochemical
Procedure: Four vials containing product manufactured in accordance with Example 5 were each reconstituted with 10 mL of 20 mM KPO4 at pH 3.5 (wash solution). The oxybutynin containing microparticles from two of the vials were retrieved by centrifugation at 1500 rpm for 15 minutes. The microparticles were resuspended in 10 mL of wash solution and vortexed. The washing procedure was repeated two more times. The final washed matrix microparticles were resuspended in a total volume of 10 mL of wash solution. The remaining two vials were not washed. One vial from each set was designated the control sample and the other vial was the experimental sample.
The controls remained undisturbed for 80 minutes to allow the matrix microparticles to float. The subnatant was removed and centrifuged at 14,000 rpm for 2 minutes. The experimental samples were each sonicated for 1 minute on level 5 using a Virtis Virsonic hand-held sonicator. […] The suspensions were centrifuged at 14,000 rpm for 2 minutes. All four of the resulting supernatants were retrieved and analyzed by reverse phase HPLC. […] The amount of oxybutynin in each sample was calculated from the area using the standard curve.

In the case of `CCN(CC)CC#CCOC(=O)C(O)(c1ccccc1)C1CCCCC1` (centres unmarked) [oxybutynin], the “burst release of oxybutynin, of the recovered amount” value (microparticles of Example 5) is reported as 34%, the “oxybutynin released due to sonication, of the recovered amount” value (microparticles of Example 5) is reported as 66% and the “amount of oxybutynin in supernatant, unwashed control sample” value (microparticles of Example 5, unwashed, not sonicated, undisturbed 80 minutes) is reported as 0.65 mg oxybutynin/vial. For the same compound, the “amount of oxybutynin in supernatant, unwashed experimental sample” value (microparticles of Example 5, unwashed, sonicated 1 minute level 5) was 1.93 mg/vial, the “leakage of drug after reconstitution” value (microparticles of Example 5, washed control, burst release removed) was “little to no leakage” and the “amount of oxybutynin in supernatant, washed control sample” value (microparticles of Example 5, washed, not sonicated, undisturbed 80 minutes, 20 mM KPO4 pH 3.5) was 0.03 mg oxybutynin/vial. For the same compound, the “amount of oxybutynin in supernatant, washed experimental sample” value (microparticles of Example 5, washed, sonicated 1 minute level 5, 20 mM KPO4 pH 3.5) was 1.05 mg/vial and the “total oxybutynin recovered after sonication compared to theoretical loading” value (microparticles of Example 5, theoretical loading 2.4 mg/vial) was 80%.

Source: patent US20040185108A1, “Method of preparing gas-filled polymer matrix microparticles useful for delivering drug” (priority 2003, published 2004)
